According to US6914045B2, “Glycopeptide antibiotics” (Wyeth Holdings Corporation, priority 2001, dated 2005):
In brackets after ≈: the same amount, converted by molar mass.

What was measured:
Assay in all cases: in vitro antibacterial evaluation, MIC by broth dilution
Type in all cases: cell-based
[1] = system: Enterococcus sp.; conditions: broth dilution, 18 hours at 35° C.
How it was run: (§1)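 Inoculum 5×10^5 CFU/mL; concentrations 64 to 0.06 μg/mL; MIC defined as lowest inhibitory level. Conducted by broth dilution under NCCLS guidelines.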

[2] = system: Staphylococcus sp.; conditions: broth dilution, 18 hours at 35° C.
How it was run: as §1

[3] = system: Streptococcus sp.; conditions: broth dilution, 18 hours at 35° C.
How it was run: as §1

[4] = system: Escherichia coli; conditions: 18 hours at 35° C.

CC(c1ccccc1)C1NC(=O)CNC(=O)C(CO)NC(=O)C(CC2CNC(=N)N2C2OC(CO)C(O)C(O)C2O)NC(=O)C(CC2CNC(=N)N2)NC(=O)C(Cc2ccc(OC3OC(CO)C(OC4OC(CO)C(O)C(O)C4OCc4ccc(OCc5ccccc5)cc4)C(O)C3O)cc2)NC1=O (stereo not shown) [Example 246c]
MIC Enterococcus avium (GC 4558) [1]: 64 µg/mL (≈ 43.8 µM)
MIC Enterococcus faecalis (ATCC 29212) [1]: >128 µg/mL
MIC Enterococcus faecalis (GC 2242) [1]: >128 µg/mL
MIC Enterococcus faecalis (GC 2691) [1]: >128 µg/mL
MIC Enterococcus faecalis (GC 3059) [1]: >128 µg/mL
MIC Enterococcus faecalis (GC 4552) [1]: >128 µg/mL
MIC Enterococcus faecalis (GC 4553) [1]: 128 µg/mL (≈ 87.7 µM)
MIC Enterococcus faecalis (GC 4554) [1]: >128 µg/mL
MIC Enterococcus faecalis (GC 6189) [1]: >128 µg/mL
MIC Enterococcus faecium (GC 2243) [1]: >128 µg/mL
MIC Enterococcus faecium (GC 4556) [1]: >128 µg/mL
MIC Enterococcus faecium (GC 4557) [1]: 128 µg/mL (≈ 87.7 µM)
MIC Enterococcus faecalis (ATCC 29212) ([1]; strain ATCC 29212): >128 µg/mL
MIC Enterococcus faecalis (GC 2242) ([1]; strain GC 2242): >128 µg/mL
MIC Enterococcus faecium (GC 2243) ([1]; strain GC 2243): >128 µg/mL
MIC Enterococcus faecalis (GC 2691) ([1]; strain GC 2691): >128 µg/mL
MIC Enterococcus faecalis (GC 3059) ([1]; strain GC 3059): >128 µg/mL
MIC Enterococcus faecalis (GC 4552) ([1]; strain GC 4552): >128 µg/mL
MIC Enterococcus faecalis (GC 4553) ([1]; strain GC 4553): 128 µg/mL (≈ 87.7 µM)
MIC Enterococcus faecalis (GC 4554) ([1]; strain GC 4554): >128 µg/mL
MIC Enterococcus faecium (GC 4556) ([1]; strain GC 4556): >128 µg/mL
MIC Enterococcus faecium (GC 4557) ([1]; strain GC 4557): 128 µg/mL (≈ 87.7 µM)
MIC Enterococcus avium (GC 4558) ([1]; strain GC 4558): 64 µg/mL (≈ 43.8 µM)
MIC Enterococcus faecalis (GC 6189) ([1]; strain GC 6189): >128 µg/mL
MIC Coagulase Negative Staphylococcus (GC 4547) [2]: >128 µg/mL
MIC Coagulase Negative Staphylococcus (GC 4548) [2]: >128 µg/mL
MIC Coagulase Negative Staphylococcus (GC 4549) [2]: >128 µg/mL
MIC Coagulase Negative Staphylococcus (GC 4551) [2]: >128 µg/mL
MIC Coagulase Negative Staphylococcus (GC 6257) [2]: >128 µg/mL
MIC Staphylococcus aureus (ATCC 29213) [2]: >128 µg/mL
MIC Staphylococcus aureus (GC 1131) [2]: >128 µg/mL
MIC Staphylococcus aureus (GC 3051) [2]: >128 µg/mL
MIC Staphylococcus aureus (GC 3053) [2]: >128 µg/mL
MIC Staphylococcus aureus (GC 4541) [2]: >128 µg/mL
MIC Staphylococcus aureus (GC 4542) [2]: >128 µg/mL
MIC Staphylococcus aureus (GC 4544) [2]: >128 µg/mL
MIC Staphylococcus aureus (GC 4545) [2]: >128 µg/mL
MIC Staphylococcus aureus-SMITH (GC 4543) [2]: >128 µg/mL
MIC Staphylococcus haemolyticus (GC 4546) [2]: >128 µg/mL
MIC Staphylococcus aureus (ATCC 29213) ([2]; strain ATCC 29213): >128 µg/mL
MIC Staphylococcus aureus (GC 1131) ([2]; strain GC 1131): >128 µg/mL
MIC Staphylococcus aureus (GC 3051) ([2]; strain GC 3051): >128 µg/mL
MIC Staphylococcus aureus (GC 3053) ([2]; strain GC 3053): >128 µg/mL
MIC Staphylococcus aureus (GC 4541) ([2]; strain GC 4541): >128 µg/mL
MIC Staphylococcus aureus (GC 4542) ([2]; strain GC 4542): >128 µg/mL
MIC Staphylococcus aureus-SMITH (GC 4543) ([2]; strain GC 4543): >128 µg/mL
MIC Staphylococcus aureus (GC 4544) ([2]; strain GC 4544): >128 µg/mL
MIC Staphylococcus aureus (GC 4545) ([2]; strain GC 4545): >128 µg/mL
MIC Staphylococcus haemolyticus (GC 4546) ([2]; strain GC 4546): >128 µg/mL
MIC Coagulase Negative Staphylococcus (GC 4547) ([2]; strain GC 4547): >128 µg/mL
MIC Coagulase Negative Staphylococcus (GC 4548) ([2]; strain GC 4548): >128 µg/mL
MIC Coagulase Negative Staphylococcus (GC 4549) ([2]; strain GC 4549): >128 µg/mL
MIC Coagulase Negative Staphylococcus (GC 4551) ([2]; strain GC 4551): >128 µg/mL
MIC Coagulase Negative Staphylococcus (GC 6257) ([2]; strain GC 6257): >128 µg/mL
MIC Streptococcus agalactiae (GC 4564) [3]: >128 µg/mL
MIC Streptococcus pneumoniae (ATCC 6301) [3]: 128 µg/mL (≈ 87.7 µM)
MIC Streptococcus pneumoniae (GC 1894) [3]: 64 µg/mL (≈ 43.8 µM)
MIC Streptococcus pneumoniae (GC 4565) [3]: 128 µg/mL (≈ 87.7 µM)
MIC Streptococcus pyogenes (GC 4563) [3]: >128 µg/mL
MIC Streptococcus pneumoniae (ATCC 6301) ([3]; strain ATCC 6301): 128 µg/mL (≈ 87.7 µM)
MIC Streptococcus pneumoniae (GC 1894) ([3]; strain GC 1894): 64 µg/mL (≈ 43.8 µM)
MIC Streptococcus pyogenes (GC 4563) ([3]; strain GC 4563): >128 µg/mL
MIC Streptococcus agalactiae (GC 4564) ([3]; strain GC 4564): >128 µg/mL
MIC Streptococcus pneumoniae (GC 4565) ([3]; strain GC 4565): 128 µg/mL (≈ 87.7 µM)
MIC Escherichia coli (ATCC 25922) [4]: >128 µg/mL
MIC Escherichia coli (GC 4559) [4]: >128 µg/mL
MIC Escherichia coli (GC 4560) [4]: 32 µg/mL (≈ 21.9 µM)
